According to article PMC6766655, “AhR–ROR-γt complex is a therapeutic target for MAP4K3/GLK^highIL-17A^high subpopulation of systemic lupus erythematosus” (The FASEB Journal, 2019):

What was measured:
GLK (MAP4K3) = molecular target: T1, GLK (MAP4K3) (Homo sapiens, UniProt Q8IVH8); assay: In vitro kinase assay, myelin basic protein as substrate (ADP-Glo); type: biochemical; conditions: recombinant kinase domain
T1 construct: Recombinant proteins of kinase domains of various MAP4Ks were used; purchased Promega
T1 sequence (Q8IVH8 16-273 limits assumed): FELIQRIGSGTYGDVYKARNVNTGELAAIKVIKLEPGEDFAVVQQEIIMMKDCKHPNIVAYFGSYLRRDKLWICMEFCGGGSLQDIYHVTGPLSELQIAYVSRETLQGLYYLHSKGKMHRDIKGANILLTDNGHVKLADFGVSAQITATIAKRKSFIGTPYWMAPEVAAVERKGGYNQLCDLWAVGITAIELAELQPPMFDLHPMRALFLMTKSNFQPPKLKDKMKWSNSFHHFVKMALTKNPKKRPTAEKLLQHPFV
Description: GLK kinase activity was determined by measuring the rate of ADP production in the in vitro kinase reaction using ADP-Glo Kinase Assay Kit (Promega). For the kinase reaction, recombinant proteins of the GLK kinase domain (1 μg) were incubated with recombinant proteins of kinase-dead PKC-θ (K409W; 0.15 μg) plus ATP (0.1 mM) or myelin basic protein (MilliporeSigma) plus ATP (0.1 mM) in kinase buffer [40 mM Tris-HCl (pH 7.5), 20 mM MgCl2, 0.1 mg/ml bovine serum albumin, 10 mM DTT, and 0.1 mM Na3VO4] for 30 min at room temperature.

GCK (MAP4K2) = molecular target: T2, GCK (MAP4K2) (Homo sapiens, UniProt Q12851); assay: as above; type: biochemical; conditions: recombinant kinase domain
T2 construct: Recombinant proteins of kinase domains of various MAP4Ks were used; purchased Promega
T2 sequence (Q12851 16-273 limits assumed): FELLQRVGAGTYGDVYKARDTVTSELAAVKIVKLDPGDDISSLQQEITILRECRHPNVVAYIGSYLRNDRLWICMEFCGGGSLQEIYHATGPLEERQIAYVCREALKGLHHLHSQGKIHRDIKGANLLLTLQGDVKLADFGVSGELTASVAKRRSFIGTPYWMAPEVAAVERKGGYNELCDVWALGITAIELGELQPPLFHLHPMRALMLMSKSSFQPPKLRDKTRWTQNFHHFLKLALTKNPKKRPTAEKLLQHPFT

KHS (MAP4K5) = molecular target: T3, KHS (MAP4K5) (Homo sapiens, UniProt Q9Y4K4); assay: as above; type: biochemical; conditions: recombinant kinase domain
T3 construct: Recombinant proteins of kinase domains of various MAP4Ks were used; purchased Promega
T3 sequence (Q9Y4K4 20-277 limits assumed): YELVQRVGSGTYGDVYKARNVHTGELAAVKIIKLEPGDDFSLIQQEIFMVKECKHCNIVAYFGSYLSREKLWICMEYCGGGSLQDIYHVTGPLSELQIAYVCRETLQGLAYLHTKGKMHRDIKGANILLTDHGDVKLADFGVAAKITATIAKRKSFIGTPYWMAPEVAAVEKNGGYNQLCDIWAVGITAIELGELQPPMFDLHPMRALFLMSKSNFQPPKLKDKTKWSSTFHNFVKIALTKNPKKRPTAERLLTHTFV

AhR–ROR-γt complex = assay: In situ proximity ligation assay in peripheral blood T cells from patients with SLE or RA; type: cell-based, human; conditions: 5 μM for 30 min; T cells from patients with SLE and RA
Description: (§1) Proximity ligation assays (PLAs) were performed using the Duolink In Situ Red Starter Kit (MilliporeSigma) according to the manufacturer’s instructions ([24]). Briefly, cells were incubated with rabbit or mouse primary antibodies for the AhR–plus–ROR-γt pair, followed by species-specific secondary antibodies that are conjugated with oligonucleotides (PLA probes). After ligation and amplification reactions for 100 min, the PLA signals from each pair of PLA probes in close proximity (<40 nm) were visualized as individual red dots by a confocal microscope (TCS SP5II; Leica Microsystems, Buffalo Grove, IL, USA). Red dots represent direct interaction signals.
(§2) After verification of the induction of GLK–AhR–ROR-γt–IL-17A signaling in human SLE T cells, we next studied whether the GLK–AhR–ROR-γt signaling is a therapeutic target for autoimmune diseases. Because there are no known commercial GLK inhibitors, we performed high-throughput screening of 101,200 compounds to identify GLK inhibitors using both cell-based luciferase reporter assays and in vitro kinase assays. […] Nevertheless, the IC50 of verteporfin for MAP4K3-GLK was the lowest one. […]
(§3) Figure 3 Verteporfin (C1) blocks the AhR–ROR-γt complex in human autoimmune T cells. […] D) Quantification of the PLA signals shown in panel C. *P < 0.05, ***P < 0.001 (2-tailed Student’s t test).

[1] = test system: AhR–phosphorylated ROR-γt (Ser-489) complex; assay: as above; type: cell-based, human; conditions: 5 μM for 30 min; T cells from patients with SLE and RA
Description: as §1, §2, §3

EAE mice = assay: MOG-induced EAE in wild-type C57BL/6J mice; type: in vivo; conditions: 0.4 μg/g body weight i.v. every 3 d

## verteporfin
GLK (MAP4K3)
  IC50: 1.15 nM
GCK (MAP4K2)
  IC50: 10.3 nM
KHS (MAP4K5)
  IC50: 43.9 nM
AhR–ROR-γt complex
  AhR–ROR-γt complex (PLA signals): significantly inhibited
[1]
  AhR–phosphorylated ROR-γt complex (PLA signals): significantly inhibited
EAE mice
  disease severity (clinical score), EAE: significantly suppressed
  serum levels of IL-6, TNF-α, IFN-γ, and IL-4, EAE: not significantly decreased
EAE mice; day 16
  serum IL-17A levels, EAE: significantly suppressed
